Read-outs that look alike come from different tables or passages of the source.
Columns and labels:
human MMP14 = human MMP14 (Homo sapiens (Human), UniProt P50281); settings: read-out: hMMP-14 potency IC50
human TACE = human TACE (Homo sapiens (Human), UniProt P78536); settings: read-out: TACE potency IC50
human ADAMTS-5 [1] = target: T1, human ADAMTS-5 (Homo sapiens (Human), UniProt Q9UNA0); settings: read-out: hADAMTS-5 potency IC50
Method: Finally, the fluorescence is read on the Envision (Perkin Elmer) after an incubation of 90 min at 37° C.

rnADAMTS-5 (1-564-6H) = rnADAMTS-5 (1-564-6H) (Rattus norvegicus, UniProt Q6TY19); settings: read-out: Rat ADAMTS-5 potency IC50
human ADAMTS-5 [2] = target: T1, human ADAMTS-5; settings: read-out: hADAMTS-5 potency IC50; remark: listed apart in the source
human MMP13 = human MMP13 (Homo sapiens (Human), UniProt P45452); settings: read-out: hMMP-13 potency IC50
Method: Human MMP13 is preactivated by incubated the enzyme in the same buffer complemented with 1 mM freshly prepared p-Aminophenylmercuric acetate (AMPA) for 1 hour at 37° C.

human TACE, sequence (P78536 whole entry, looked up, change not shown): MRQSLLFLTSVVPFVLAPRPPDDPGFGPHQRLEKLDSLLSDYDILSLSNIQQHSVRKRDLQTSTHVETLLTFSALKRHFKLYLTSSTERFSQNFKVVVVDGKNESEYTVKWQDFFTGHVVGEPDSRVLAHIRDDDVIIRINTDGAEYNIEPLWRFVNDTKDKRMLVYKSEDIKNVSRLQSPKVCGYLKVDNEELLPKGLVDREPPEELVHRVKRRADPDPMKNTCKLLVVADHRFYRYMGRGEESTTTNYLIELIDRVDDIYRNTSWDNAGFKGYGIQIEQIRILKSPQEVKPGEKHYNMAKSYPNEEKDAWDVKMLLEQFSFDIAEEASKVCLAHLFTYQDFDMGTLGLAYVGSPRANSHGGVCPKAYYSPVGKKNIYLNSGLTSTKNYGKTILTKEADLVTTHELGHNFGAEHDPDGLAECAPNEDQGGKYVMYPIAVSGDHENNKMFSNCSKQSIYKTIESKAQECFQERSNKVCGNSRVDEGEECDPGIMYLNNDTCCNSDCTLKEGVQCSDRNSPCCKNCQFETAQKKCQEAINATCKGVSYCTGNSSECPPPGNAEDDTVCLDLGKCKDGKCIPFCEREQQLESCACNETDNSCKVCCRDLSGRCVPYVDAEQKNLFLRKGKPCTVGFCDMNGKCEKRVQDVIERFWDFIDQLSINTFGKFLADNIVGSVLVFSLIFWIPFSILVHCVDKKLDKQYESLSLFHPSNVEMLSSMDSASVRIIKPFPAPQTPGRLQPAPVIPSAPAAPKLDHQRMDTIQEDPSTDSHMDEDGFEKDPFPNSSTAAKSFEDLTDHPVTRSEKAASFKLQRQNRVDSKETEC
T1 sequence (Q9UNA0 262-930): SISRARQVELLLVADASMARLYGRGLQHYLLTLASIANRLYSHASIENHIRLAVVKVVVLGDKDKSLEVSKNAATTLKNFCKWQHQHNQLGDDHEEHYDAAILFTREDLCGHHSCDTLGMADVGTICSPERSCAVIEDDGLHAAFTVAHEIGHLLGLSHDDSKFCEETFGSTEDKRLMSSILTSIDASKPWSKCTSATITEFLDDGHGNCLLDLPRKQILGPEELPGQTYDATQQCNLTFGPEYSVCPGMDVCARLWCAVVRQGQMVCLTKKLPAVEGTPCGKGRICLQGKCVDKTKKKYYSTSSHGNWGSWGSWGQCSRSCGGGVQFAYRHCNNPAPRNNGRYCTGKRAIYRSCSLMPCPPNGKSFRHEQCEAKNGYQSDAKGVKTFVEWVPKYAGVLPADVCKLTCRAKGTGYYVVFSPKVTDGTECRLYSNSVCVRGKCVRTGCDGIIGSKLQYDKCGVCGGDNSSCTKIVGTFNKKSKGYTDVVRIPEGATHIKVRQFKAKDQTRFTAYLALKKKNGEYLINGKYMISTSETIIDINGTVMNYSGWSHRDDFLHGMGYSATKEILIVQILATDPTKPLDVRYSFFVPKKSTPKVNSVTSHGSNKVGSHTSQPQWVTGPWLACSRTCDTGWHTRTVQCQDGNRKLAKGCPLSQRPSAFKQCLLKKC

Row | SMILES | IC50 (human MMP14) [µM] | IC50 (human TACE) [µM] | IC50 (human ADAMTS-5 [1]) [µM] | IC50 (rnADAMTS-5 (1-564-6H)) [µM] | IC50 (human ADAMTS-5 [2]) [µM] | IC50 (human MMP13) [µM]
1 | C[C@H]1CN(C(=O)CC[C@@]2(C3CC3)NC(=O)NC2=O)CCN1c1cc(F)cc(-c2cn[nH]c2)c1 [compound 357, (5S)-5-cyclopropyl-5-[3-[(3S)-4-[3-fluoro-5-(1H-pyrazol-4-yl)phenyl]-3-methyl-piperazin-1-yl]-3-oxo-propyl]imidazolidine-2,4-dione] | > 20 | > 4 | 0.025 | – | – | –
2 | C[C@H]1CN(C(=O)CCC2(c3cccnc3)NC(=O)NC2=O)CCN1c1cc(F)cc(F)c1 (stereo partly drawn) [compound 320, 5-[3-[(3S)-4-(3,5-difluorophenyl)-3-methyl-piperazin-1-yl]-3-oxo-propyl]-5-(3-pyridyl)imidazolidine-2,4-dione] | > 20 | > 4 | 0.048 | – | – | –
3 | Cc1cc(C2(CCC(=O)N3CCN(c4cc(F)cc(F)c4)[C@@H](C)C3)NC(=O)NC2=O)ccn1 (stereo partly drawn) [compound 367, 5-[3-[(3S)-4-(3,5-difluorophenyl)-3-methyl-piperazin-1-yl]-3-oxo-propyl]-5-(2-methyl-4-pyridyl)imidazolidine-2,4-dione] | > 20 | > 4 | 0.044 | – | – | –
4 | C[C@H]1CN(C(=O)CCC2(c3cncnc3)NC(=O)NC2=O)CCN1c1cc(F)cc(F)c1 (stereo partly drawn) [compound 332, 5-[3-[(3S)-4-(3,5-difluorophenyl)-3-methyl-piperazin-1-yl]-3-oxo-propyl]-5-pyrimidin-5-yl-imidazolidine-2,4-dione] | 0.378 | > 20 | 0.061 | – | – | –
5 | C[C@H]1CN(C(=O)CCC2(C3CC3)NC(=O)NC2=O)CCN1c1cncc(Cl)c1 (stereo partly drawn) [compound 260, 5-[3-[(3S)-4-(5-chloro-3-pyridyl)-3-methyl-piperazin-1-yl]-3-oxo-propyl]-5-cyclopropyl-imidazolidine-2,4-dione] | > 20 | > 20 | 0.126 | – | – | –
6 | C[C@H]1CN(C(=O)CCC2(c3cnccn3)NC(=O)NC2=O)CCN1c1cc(F)cc(F)c1 (stereo partly drawn) [compound 327, 5-[3-[(3S)-4-(3,5-difluorophenyl)-3-methyl-piperazin-1-yl]-3-oxo-propyl]-5-pyrazin-2-yl-imidazolidine-2,4-dione] | > 4 | > 4 | 0.045 | – | – | –
7 | Cc1cccc(C2(CCC(=O)N3CCN(c4cc(F)cc(F)c4)[C@@H](C)C3)NC(=O)NC2=O)n1 (stereo partly drawn) [compound 309, 5-[3-[(3S)-4-(3,5-difluorophenyl)-3-methyl-piperazin-1-yl]-3-oxo-propyl]-5-(6-methyl-2-pyridyl)imidazolidine-2,4-dione] | > 20 | > 4 | 0.031 | – | – | –
8 | C[C@H]1CN(C(=O)CCC2(c3cccnc3)NC(=O)NC2=O)CCN1c1cc(F)cc(Cl)c1 (stereo partly drawn) [compound 317, 5-[3-[(3S)-4-(3-chloro-5-fluoro-phenyl)-3-methyl-piperazin-1-yl]-3-oxo-propyl]-5-(3-pyridyl)imidazolidine-2,4-dione] | 0.823 | > 4 | 0.052 | – | – | –
9 | CC(CC1(C2CC2)NC(=O)NC1=O)C(=O)N1CCN(c2cncc(F)c2)[C@@H](C)C1 (stereo partly drawn) [compound 313, 5-cyclopropyl-5-[3-[(3S)-4-(5-fluoro-3-pyridyl)-3-methyl-piperazin-1-yl]-2-methyl-3-oxo-propyl]imidazolidine-2,4-dione] | > 20 | > 20 | 0.034 | – | – | –
10 | C[C@H]1CN(C(=O)CCC2(c3cccnc3)NC(=O)NC2=O)CCN1c1cccc(F)c1 (stereo partly drawn) [compound 319, 5-[3-[(3S)-4-(3-fluorophenyl)-3-methyl-piperazin-1-yl]-3-oxo-propyl]-5-(3-pyridyl)imidazolidine-2,4-dione] | > 4 | > 4 | 0.094 | – | – | –
11 | C[C@H]1CN(C(=O)CCC2(c3cnn(C)c3)NC(=O)NC2=O)CCN1c1cc(F)cc(F)c1 (stereo partly drawn) [compound 397, 5-[3-[(3S)-4-(3,5-difluorophenyl)-3-methyl-piperazin-1-yl]-3-oxo-propyl]-5-(1-methylpyrazol-4-yl)imidazolidine-2,4-dione] | 0.026 | > 4 | 0.037 | – | – | –
12 | C[C@@H](CC1(C2CC2)NC(=O)NC1=O)C(=O)N1CCN(c2cccc(-c3cn[nH]c3)c2)[C@@H](C)C1 (stereo partly drawn) [compound 339, 5-cyclopropyl-5-[(2S)-2-methyl-3-[(3S)-3-methyl-4-[3-(1H-pyrazol-4-yl)phenyl]piperazin-1-yl]-3-oxo-propyl]imidazolidine-2,4-dione] | 1.23 | > 4 | 0.033 | – | – | –
13 | C[C@H]1CN(C(=O)CCC2(c3ccccn3)NC(=O)NC2=O)CCN1c1cc(F)cc(Cl)c1 (stereo partly drawn) [compound 346, 5-[3-[(3S)-4-(3-chloro-5-fluoro-phenyl)-3-methyl-piperazin-1-yl]-3-oxo-propyl]-5-(2-pyridyl)imidazolidine-2,4-dione] | > 4 | > 4 | 0.037 | – | – | –
14 | CC(CC1(C2CC2)NC(=O)NC1=O)C(=O)N1CCN(c2cccc(Cl)c2)CC1 (stereo not drawn) [compound 121, 5-[3-[4-(3-chlorophenyl)piperazin-1-yl]-2-methyl-3-oxo-propyl]-5-cyclopropyl-imidazolidine-2,4-dione] | – | 1.1 | 0.015 | 0.024 | 0.015 | 0.0706
15 | O=C1NC(=O)C(CCC(=O)N2CCN(c3cc(Cl)cc(Cl)c3)CC2)(c2cccnc2)N1 (stereo not drawn) [compound 111, 5-[3-[4-(3,5-dichlorophenyl)piperazin-1-yl]-3-oxo-propyl]-5-(3-pyridyl)imidazolidine-2,4-dione] | – | 0.963 | – | 0.046 | 0.042 | > 20
16 | O=C1NC(=O)C(CCC(=O)N2CCN(c3ccccc3)CC2)(C2CC2)N1 (stereo not drawn) [compound 138, 5-cyclopropyl-5-[3-oxo-3-(4-phenylpiperazin-1-yl)propyl]imidazolidine-2,4-dione] | – | > 20 | – | 0.107 | 0.101 | > 4
17 | O=C1NC(=O)C(CCC(=O)N2CCN(c3ccc(F)c(Cl)c3)CC2)(C2CC2)N1 (stereo not drawn) [compound 114, 5-[3-[4-(3-chloro-4-fluoro-phenyl)piperazin-1-yl]-3-oxo-propyl]-5-cyclopropyl-imidazolidine-2,4-dione] | – | > 20 | – | 0.062 | 0.067 | 2.58
18 | O=C1NC(=O)C(CCC(=O)N2CCN(c3cccc(Cl)c3)CC2)(C2CCC2)N1 (stereo not drawn) [compound 70, 5-[3-[4-(3-chlorophenyl)piperazin-1-yl]-3-oxo-propyl]-5-cyclobutyl-imidazolidine-2,4-dione] | – | > 20 | – | 0.205 | 0.253 | > 4
19 | COc1ccc(C2(CCC(=O)N3CCN(c4cccc(Cl)c4)CC3)NC(=O)NC2=O)cc1 (stereo not drawn) [compound 78, 5-[3-[4-(3-chlorophenyl)piperazin-1-yl]-3-oxo-propyl]-5-(4-methoxyphenyl)imidazolidine-2,4-dione] | – | 2.66 | – | 0.096 | 0.079 | 2.1
20 | O=C1NC(=O)C(CCC(=O)N2CCN(c3cccc(Cl)c3)CC2)(C2CCCC2)N1 (stereo not drawn) [compound 109, 5-[3-[4-(3-chlorophenyl)piperazin-1-yl]-3-oxo-propyl]-5-cyclopentyl-imidazolidine-2,4-dione] | – | 5.26 | – | 0.182 | 0.261 | > 4
21 | COCC1(CC(C)C(=O)N2CCN(c3cc(Cl)cc(Cl)c3C)[C@@H](C)C2)NC(=O)NC1=O (stereo partly drawn) [compound 227, 5-[3-[(3S)-4-(3,5-dichloro-2-methyl-phenyl)-3-methyl-piperazin-1-yl]-2-methyl-3-oxo-propyl]-5-(methoxymethyl)imidazolidine-2,4-dione] | > 20 | – | – | – | – | –
22 | C[C@H]1CN(C(=O)CCC2(c3ccccc3)NC(=O)NC2=O)CCN1c1ccccc1 (stereo partly drawn) [compound 137, 5-[3-[(3S)-3-methyl-4-phenyl-piperazin-1-yl]-3-oxo-propyl]-5-phenyl-imidazolidine-2,4-dione] | – | > 20 | – | 0.249 | 0.24 | > 20
23 | CC1CN(C(=O)CCC2(C3CC3)NC(=O)NC2=O)CCN1c1ccccc1 (stereo not drawn) [compound 106, 5-cyclopropyl-5-[3-(3-methyl-4-phenyl-piperazin-1-yl)-3-oxo-propyl]imidazolidine-2,4-dione] | – | > 20 | – | 0.222 | 0.233 | > 20
24 | CC(C)(C)C1(CCC(=O)N2CCN(c3cccc(Cl)c3)CC2)NC(=O)NC1=O (stereo not drawn) [compound 107, 5-tert-butyl-5-[3-[4-(3-chlorophenyl)piperazin-1-yl]-3-oxo-propyl]imidazolidine-2,4-dione] | – | > 4 | – | 0.147 | 0.172 | > 20
25 | Cc1ccccc1N1CCN(C(=O)CCC2(c3cccnc3)NC(=O)NC2=O)CC1 (stereo not drawn) [compound 64, 5-[3-[4-(o-tolyl)piperazin-1-yl]-3-oxo-propyl]-5-(3-pyridyl)imidazolidine-2,4-dine] | – | 3.14 | – | 0.165 | 0.125 | > 20
26 | Cc1ccccc1N1CCN(C(=O)CCC2(C3CC3)NC(=O)NC2=O)CC1 (stereo not drawn) [compound 35, 5-cyclopropyl-5-[3-[4-(o-tolyl)piperazin-1-yl]-3-oxo-propyl]imidazolidine-2,4-dione] | – | > 4 | – | 0.103 | 0.099 | > 20
27 | O=C1NC(=O)C(CCC(=O)N2CCN(c3ccc(F)c(Cl)c3)CC2)(c2cccnc2)N1 (stereo not drawn) [compound 91, 5-[3-[4-(3-chloro-4-fluoro-phenyl)piperazin-1-yl]-3-oxo-propyl]-5-(3-pyridyl)imidazolidine-2,4-dione] | – | > 4 | – | 0.069 | 0.095 | 1.68

— US9926281B2 (priority 2014, dated 2018)
